Measurements published in patent US9388139B2, “Derivatives of celeboxib, use thereof and preparation thereof” (German University, priority 2011, dated 2016).

How the values were obtained:
Experiment in all cases: Tumor cell growth inhibition panel
Assay type in all cases: cell-based
[1] = tested on: UACC-62; conditions: Homo sapiens, Melanoma
Protocol: (§1) Thus, compound 12 is able to show broad spectrum tumor cell growth inhibitory activity independent of cyclooxygenase inhibition, whereas PDE5 may be the major contributor to such activity.
(§2) The human tumor cell lines were purchased from the American Type Culture Collection (Mansassas, Va.) and maintained in RPMI-1640+2.0 g/L glucose pH 7.4+5% FBS+4 mM glutamine (complete growth medium), incubated at 37° C. in 5% CO2, and passaged at subconfluent density. The human fetal colon FHC cells were cultured in DMEM:F12 medium supplemented with 10% FBS, cholera toxin (10 ng/mL), 5 μg/ml transferrin, 5 μg/ml insulin, and 100 ng/ml hydrocortisone. The passage number was routinely limited to approximately 20 and morphology monitored with each passage, but no additional authentication of the cell lines was performed.
(§3) Cells were plated in 96-well microtiter plates at a density of 5,000 cells per well and allowed to adhere overnight prior to treatment. Cells were treated with a 2-log concentration range of either SS or SBA and incubated for an additional 72 hours. For siRNA assays, cells were transfected in OptiMEM media with 0.5% SureFECT transfection reagent and 200 nmol/L of either negative control or PDE5 siRNA and incubated at 37° C. for 24 h prior to treatment. At the end of the incubation period, relative cell viability was compared to vehicle controls using the Cell Titer Glo Assay (Promega, Madison Wis.), which measures viable cells based on ATP content, according to the manufacturer's specifications.

[2] = tested on: NCI-ADR/RES; conditions: Homo sapiens; Other, NCI-ADR/RES (adriamycin resistant)
Protocol: as §1, §2, §3

[3] = tested on: T-47D; conditions: Homo sapiens, T47D, Breast
Protocol: as §1, §2, §3

[4] = tested on: HCT-15; conditions: Homo sapiens, Colon
Protocol: as §1, §2, §3

[5] = tested on: Hs578T; conditions: Homo sapiens, Hs-578T, Breast
Protocol: as §1, §2, §3

[6] = tested on: SK-MEL-2; conditions: Homo sapiens, Melanoma
Protocol: as §1, §2, §3

[7] = tested on: A549; conditions: Homo sapiens, Lung
Protocol: as §1, §2, §3

[8] = tested on: KM12; conditions: Homo sapiens, Colon
Protocol: as §1, §2, §3

[9] = tested on: HL-60 (TB); conditions: Homo sapiens, Hematopoietic
Protocol: as §1, §2, §3

[10] = tested on: RXF-393; conditions: Homo sapiens, Renal
Protocol: as §1, §2, §3

[11] = tested on: TK-10; conditions: Homo sapiens, Renal
Protocol: as §1, §2, §3

[12] = tested on: OVCAR-4; conditions: Homo sapiens, Ovarian
Protocol: as §1, §2, §3

[13] = tested on: SF-295; conditions: Homo sapiens, CNS
Protocol: as §1, §2, §3

[14] = tested on: SF-539; conditions: Homo sapiens, CNS
Protocol: as §1, §2, §3

[15] = tested on: DU-145; conditions: Homo sapiens, Prostate
Protocol: as §1, §2, §3

[16] = tested on: RPMI-8226; conditions: Homo sapiens, Hematopoietic
Protocol: as §1, §2, §3

[17] = tested on: IGROV-1; conditions: Homo sapiens, Ovarian
Protocol: as §1, §2, §3

[18] = tested on: OVCAR-3; conditions: Homo sapiens, Ovarian
Protocol: as §1, §2, §3

[19] = tested on: SNB-19; conditions: Homo sapiens, CNS
Protocol: as §1, §2, §3

[20] = tested on: SR; conditions: Homo sapiens, Hematopoietic
Protocol: as §1, §2, §3

[21] = tested on: PC-3; conditions: Homo sapiens, Prostate
Protocol: as §1, §2, §3

[22] = tested on: HCC-2998; conditions: Homo sapiens, Colon
Protocol: as §1, §2, §3

[23] = tested on: K562; conditions: Homo sapiens, Hematopoietic
Protocol: as §1, §2, §3

[24] = tested on: NCI-H460; conditions: Homo sapiens, Lung
Protocol: as §1, §2, §3

[25] = tested on: NCI-H522; conditions: Homo sapiens, Lung
Protocol: as §1, §2, §3

[26] = tested on: ACHN; conditions: Homo sapiens, Renal
Protocol: as §1, §2, §3

[27] = tested on: HOP-92; conditions: Homo sapiens, Lung
Protocol: as §1, §2, §3

[28] = tested on: U251; conditions: Homo sapiens, U-251, CNS
Protocol: as §1, §2, §3

[29] = tested on: CAKI-1; conditions: Homo sapiens, Renal
Protocol: as §1, §2, §3

[30] = tested on: CCFR-CEM; conditions: Homo sapiens, Hematopoietic
Protocol: as §1, §2, §3

[31] = tested on: OVCAR-8; conditions: Homo sapiens, Ovarian
Protocol: as §1, §2, §3

[32] = tested on: A498; conditions: Homo sapiens, Renal
Protocol: as §1, §2, §3

[33] = tested on: NCI-H23; conditions: Homo sapiens, Lung
Protocol: as §1, §2, §3

[34] = tested on: SK-MEL-28; conditions: Homo sapiens, Melanoma
Protocol: as §1, §2, §3

[35] = tested on: NCI-H226; conditions: Homo sapiens, Lung
Protocol: as §1, §2, §3

[36] = tested on: MOLT-4; conditions: Homo sapiens, Hematopoietic
Protocol: as §1, §2, §3

[37] = tested on: UO-31; conditions: Homo sapiens, Renal
Protocol: as §1, §2, §3

[38] = tested on: M14; conditions: Homo sapiens, Melanoma
Protocol: as §1, §2, §3

[39] = tested on: HT29; conditions: Homo sapiens, HT-29, Colon
Protocol: as §1, §2, §3

[40] = tested on: SNB-75; conditions: Homo sapiens, CNS
Protocol: as §1, §2, §3

[41] = tested on: MDA-MB-468; conditions: Homo sapiens, Breast
Protocol: as §1, §2, §3

[42] = tested on: SN12C; conditions: Homo sapiens, Renal
Protocol: as §1, §2, §3

[43] = tested on: HCT-116; conditions: Homo sapiens, Colon
Protocol: as §1, §2, §3

[44] = tested on: MDA-MB-231; conditions: Homo sapiens, Breast
Protocol: as §1, §2, §3

Q: With CC(C)(C)C1=NN(c2ccc(C(=O)O)cc2)C(c2ccc(Cl)cc2Cl)C1 (centres unmarked) [Compound 12, 4-(3-(tert-Butyl)-5-(2,4-dichlorophenyl)-4,5-dihydro-1H-pyrazol-1-yl)benzoic acid] as the compound, how does the IC50 [1] read?
A: Its IC50 is 42.3 µM.

Q: What about the IC50 [2] of the same compound?
A: The IC50 was 57.2 µM.

Q: And the IC50 [3]?
A: Its IC50 is 63 µM.

Q: What about the IC50 [4] of the same compound?
A: The IC50 was 40.3 µM.

Q: And the IC50 [5]?
A: The IC50 was 48.9 µM.

Q: And the IC50 [6]?
A: Its IC50 is 44.5 µM.

Q: And the IC50 [7]?
A: Its IC50 is 58 µM.

Q: And the IC50 [8]?
A: The IC50 was 34.7 µM.

Q: What about the IC50 [9] of the same compound?
A: Its IC50 is 34.5 µM.

Q: And the IC50 [10]?
A: The IC50 was 46.7 µM.

Q: And the IC50 [11]?
A: Its IC50 is 74 µM.

Q: And the IC50 [12]?
A: The IC50 was 54.9 µM.

Q: And the IC50 [13]?
A: Its IC50 is 45.8 µM.

Q: What about the IC50 [14] of the same compound?
A: The IC50 was 52.9 µM.

Q: What about the IC50 [15] of the same compound?
A: Its IC50 is 59.6 µM.

Q: And the IC50 [16]?
A: Its IC50 is 23.2 µM.

Q: What about the IC50 [17] of the same compound?
A: Its IC50 is 59 µM.

Q: And the IC50 [18]?
A: The IC50 was 37.8 µM.

Q: And the IC50 [19]?
A: Its IC50 is 52.8 µM.

Q: And the IC50 [20]?
A: The IC50 was 43 µM.

Q: What about the IC50 [21] of the same compound?
A: The IC50 was 55.1 µM.

Q: And the IC50 [22]?
A: Its IC50 is 41.9 µM.

Q: And the IC50 [23]?
A: The IC50 was 33.2 µM.

Q: And the IC50 [24]?
A: Its IC50 is 42.9 µM.

Q: What about the IC50 [25] of the same compound?
A: The IC50 was 50.4 µM.

Q: What about the IC50 [26] of the same compound?
A: Its IC50 is 55.3 µM.

Q: What about the IC50 [27] of the same compound?
A: Its IC50 is 52.8 µM.

Q: And the IC50 [28]?
A: The IC50 was 33.3 µM.

Q: And the IC50 [29]?
A: The IC50 was 87 µM.

Q: And the IC50 [30]?
A: The IC50 was 33.1 µM.

Q: What about the IC50 [31] of the same compound?
A: The IC50 was 45.8 µM.

Q: What about the IC50 [32] of the same compound?
A: The IC50 was 33 µM.

Q: What about the IC50 [33] of the same compound?
A: Its IC50 is 40.6 µM.

Q: And the IC50 [34]?
A: The IC50 was 72.4 µM.

Q: And the IC50 [35]?
A: The IC50 was 56.4 µM.

Q: What about the IC50 [36] of the same compound?
A: Its IC50 is 20.7 µM.

Q: What about the IC50 [37] of the same compound?
A: Its IC50 is 55.7 µM.

Q: And the IC50 [38]?
A: Its IC50 is 62.9 µM.

Q: What about the IC50 [39] of the same compound?
A: Its IC50 is 29.8 µM.

Q: What about the IC50 [40] of the same compound?
A: Its IC50 is 67.8 µM.

Q: What about the IC50 [41] of the same compound?
A: Its IC50 is 58.5 µM.

Q: And the IC50 [42]?
A: The IC50 was 50 µM.

Q: What about the IC50 [43] of the same compound?
A: Its IC50 is 39 µM.

Q: And the IC50 [44]?
A: The IC50 was 64.4 µM.
